Key:
[1] = Antihypertensive action in conscious, unrestrained SHR (i.v.), Pharmacological Experiment 1; assay type: in vivo, spontaneously hypertensive rats (SHR); conditions: 0.3 mg/kg i.v., change in blood pressure
From the text: Catheters for blood pressure measurement and for drug administration were previously inserted into carotid artery and jugular vein of spontaneously hypertensive rats (SHR) weighing 350-450 g. […] The blood pressure was automatically measured and analyzed with a pressure transducer.

[2] = tested on: trachea; test: Effect on acetylcholine-induced contraction of isolated trachea strips (bronchodilation), Pharmacological Experiment 4; set-up: species or system guinea pig (Hartley); conditions: Cavia porcellus; acetylcholine 10^-6 M contraction; papaverine 10^-4 M response taken as 100%
Experimental: Male Hartley guinea pigs weighing 260-390 g were anesthetized with sodium pentobarbital (100 mg/kg, i.p.). The guinea pigs were then dehematized and trachea was isolated. Ventral cartilage of the trachea was incised and ligament was insected to give 3 mm wide strips. The strips were suspended in a 40 ml-Magnus bath filled with Krebs-Henseleit solution (NaCl 117 mM; KCl 4.7 mM; CaCl2 2.5 mM; MgSO4 1.2 mM; NaHCO3 24.8 mM; KH2 PO4 1.2 mM; glucose 11.0 mM). The resting tension of 1 g was applied. The Magnus bath was constantly aerated with a mixed gas (95% oxygen+5% carbon dioxide gas). The tension of the strips was measured with an isometric transducer (TB-611T, Nihon Kohden, Japan) and recorded on a recorder (Ti-102, Tokai Irika, Japan). The strips were contracted with acetylcholine (10^-6 M) and after the contraction became stable, the compounds were cumulatively added to the bath and relaxing response was observed. The relaxation by the compounds was expressed as IC50 (μM), the concentration required to inhibit the papaverine (10^-4 M)-induced response (which was taken as 100%) by half.

[3] = tested on: left coronary artery; test: Effect on coronary blood flow, perfused left coronary artery of anesthetized dogs, Pharmacological Experiment 3; assay type: in vivo, mongrel dog; conditions: intracoronary injection; for Increase in coronary blood flow, ED50: dose giving half of the effect of 3 μg nifedipine
Experimental: Groups of 2 or 3 adult mongrel dogs were anesthetized with an intravenous administration of 30 mg/kg body weight of sodium pentobarbital. According to the method of Yago et al [Folia Pharmacologica Japonica, vol. 57, p. 380 (1961)], the left coronary artery was perfused and its blood flow was measured. Test compound was injected into the coronary artery at a volume of 10-300 μg. The effects of the test compound on coronary blood flow were expressed as ED50 (μg), the dose required to increase the coronary blood flow by a half of the effects by the coronary artery injection of 3 μg of nifedipine [dimethyl 2,6-dimethyl-4-(2-nitrophenyl)-1,4-dihydropyridine-3,5-dicarboxylate].
The half life (T 1/2, minute) was also measured as the duration of effects.

[4] = tested on: thoracic aorta; test: Relaxation of phenylephrine-contracted thoracic aorta ring strips (vasodilation), Pharmacological Experiment 2; conditions: Oryctolagus cuniculus; phenylephrine 10^-6 M; rabbit aorta ring strips; read-out: Vasodilation, IC50, concentration required to inhibit phenylephrine-induced contraction by half
Experimental: Male rabbits (weighing 1.9-3.0 kg) were anesthetized with sodium pentobarbital and dehematized to remove thoracic aorta. Ring strips (about 2 mm wide) were prepared and suspended in a 40 ml-Magnus bath filled with Krebs-Henseleit solution (NaCl 117 mM; KCl 4.7 mH; CaCl2 2.5 mH; MgSO4 1.2 mM; NaHCO3 24.8 mM; KH2 PO4 1.2 mM; glucose 11.0 mM). The resting tension of 2 g was applied. The Magnus bath was constantly aerated with a mixed gas (95% oxygen+5% carbon dioxide gas). The tension of the strips was measured by an isometric transducer (TB-611T, Nihon Kohden, Japan). The strips were contracted with phenylephrine (10^-6 M) and after the contraction became stable, the compounds were cumulatively added to the bath and relaxing response was observed. The vasodilating action of the compounds was expressed as IC50 (μM), the concentration required to inhibit phenylephurine-induced contraction (which was taken as 100%) by half.

[5] = tested on: experimental asthma caused by histamine inhalation; test: Effects on experimental asthma caused by histamine inhalation, Pharmacological Experiment 5; assay type: in vivo, guinea pig (Hartley); conditions: 0.2% histamine
Experimental: According to Suyama [Allergy, vol. 15, p. 549 (1966)], female Hartley guinea pigs weighing 490-630 g were placed in an aerosol inhalation device, and 0.2% histamine solution (histamine chloride, Nakarai Kagaku, Japan) was sprayed with an ultrasonic nebulizer (TUR-3200, Nihon Kohden, Japan). Protective action was examined using collapsing as an index. Inhalation of the test compound was performed by placing the guinea pigs in the aforementioned aerosol inhalation device and spraying the test compound dissolved in a physiological saline to a predetermined concentration for 5 minutes. Then, the guinea pigs were allowed to immediately inhale histamine and delay in collapsing by dyspnea was measured.

Compound	Antihypertensive action (SHR i.v.) [1]	IC50 [2]	Increase in coronary blood flow, T 1/2 (half life as duration of effects) [3]	Increase in coronary blood flow, ED50 [3]	IC50 [4]	Average time until collapsing ([5]; 0.01% inhaled for 5 minutes)	Average time until collapsing ([5]; 0.1% inhaled for 5 minutes)
C[C@@H](N)[C@H]1CC[C@H](C(=O)Nc2ccnc3[nH]ncc23)CC1 [Example 6, (+)-trans-N-(1H-pyrazolo[3,4-b]pyridin-4-yl)-4-(1-aminoethyl)cyclohexanecarboxamide]	-96 mmHg	170 nM	3.0 min	4.3 µg	120 nM	–	–
C[C@@H](N)[C@H]1CC[C@H](C(=O)Nc2ccnc3[nH]ccc23)CC1 [Example 3, (+)-trans-N-(1H-pyrrolo[2,3-b]pyridin-4-yl)-4-(1-aminoethyl)cyclohexanecarboxamide]	-62 mmHg	60 nM	2.7 min	8.8 µg	90 nM	152.4 ± 12.2 s	235.4 ± 40.2 s
CC(C)(N)[C@H]1CC[C@H](C(=O)Nc2ccnc3[nH]ncc23)CC1 [Example 7, trans-N-(1H-pyrazolo[3,4-b]pyridin-4-yl)-4-(1-amino-1-methylethyl)cyclohexanecarboxamido]	-53 mmHg	310 nM	6.7 min	20 µg	190 nM	–	–
CC(C)(N)[C@H]1CC[C@H](C(=O)Nc2ccnc3[nH]ccc23)CC1 [Example 4, trans-N-(1H-pyrrolo[2,3-b]pyridin-4-yl)-4-(1-amino-1-methylethyl)cyclohexanecarboxamide]	-77 mmHg	90 nM	3.8 min	7.0 µg	80 nM	–	–

Reference: patent US5478838A, “4-amino(alkyl)cyclohexane-1-carboxamide compound and use thereof” (Yoshitomi Pharmaceutical Industries, Ltd., priority 1991, dated 1995)
